Measured values: PubChem BioAssay AID1963838 (Molecular Pharmacology Branch, DTP, NCI, 2024)
Where “and” joins values, the source holds several entries; their conditions need not be identical. Identical values can stand only once.

Tested on: 855422-203-R-J1-PDC complex spheroid viability
Test: Anticancer human tumor 855422-203-R-J1-PDC patient-derived bladder carcinoma cell line growth inhibition [POLQ]
Conditions: for viability, T/C: stronger effect = lower value
Protocol: Multicellular complex tumor spheroid response to Polymerase (POL) inhibitors (novobiocin, ART-558, RP6685) in combination with a variety of drugs and investigational agents in selected tumor cell lines
The POL inhibitors (novobiocin, ART-558, and RP6685) were evaluated both individually and in combination with standard of care and investigational anticancer small molecules within a complex spheroid model of solid tumors. . Complex spheroids include a stromal component modeled by human endothelial cells (HUVEC) and fibroblasts modeled by human mesenchymal stem cells (MSCs). The concentration ranges selected for each drug and investigational agent were based upon clinically achievable concentrations if the clinical Cmax of the agent was known.
Compounds. The drugs and investigational agents: novobiocin (NSC847541), ART-558 (NSC835418), RP-6685 (NSC848927), peposertib (NSC802822), ceralasertib (NSC780249), elimusertib (NSC800525), camonsertib (NSC841442), AZD-1390 (NSC803789), olaparib (NSC753686), talazoparib (NSC767125), rucaparib (NSC756644), sotorasib (NSC818433), MRTX-1133 (NSC836407), SN-38 (NSC673596), topotecan (NSC609699), epotoside (NSC141540), doxorubicin (NSC123127), gemcitabine (NSC613327), 5-fluorouracil (NSC19893), paclitaxel (NSC125973), vemurafenib (NSC761431), MSA-2 (NSC828583), SN-011 (NSC837082), adavosertib (NSC754352), prexasertib (NSC758257), carboplatin (NSC241240) and oxaliplatin (NSC266046), were obtained from the National Cancer Institute (NCI) Developmental Therapeutics Program Chemical Repository (21). The FDA-approved anticancer drug set is available from the Developmental Therapeutics Program at https://dtp.cancer.gov/organization/dscb/obtaining/. […] The stock solutions were prepared in dimethyl sulfoxide (DMSO, Sigma-Aldrich, St. Louis, MO, cat. D2650), except for the platinum compounds which were prepared in saline (Quality Biological, Gaithersburg, MD, cat. 114-055-101), at 800-fold the tested concentration and stored at -70 degrees C prior to their use. All drugs and investigational agents were tested over a range starting from a high concentration at or near the clinical Cmax and decreasing in half-log increments. If the clinical Cmax for an agent had not been determined, the highest concentration tested was 10 microM, except for SN-38, which was tested at a high concentration of 1 microM.
Cell Culture. All cells were maintained in an incubator at 37 degrees C and 5% CO2 with 95% humidity. The PDC lines were cultured according to standard operating procedures established by the NCI PDMR (https://pdmr.cancer.gov). Table 3 of the manuscript, lists the cell lines along with the number of the three cell types plated to form the mct-spheroids and media for tumor cell growth. After thawing, all PDC lines, except 997537-175-T-J1-PDC and 415267-285-R-J2-PDC, were cultured in Matrigel-coated flasks prepared with a working solution of 1X Ham's F-12 nutrient mix, without supplementation (Thermo Fisher Scientific, cat. 11765054), 100 U/mL penicillin-streptomycin (Thermo Fisher Scientific, cat. 15140122), and 2.5% Matrigel (Corning Inc., Corning, NY, cat. 354248) for the first three passages. The two PDC lines 997537-175-T-J1-PDC and 415267-285-R-J2-PDC were cultured on uncoated flasks. The 857933-349-R-J2-PDC line was cultured in 6C/Colon 1B media containing advanced DMEM/F-12 (Thermo Fisher Scientific, cat. 12634028), 10 mM HEPES (Thermo Fisher Scientific, cat. 15630080), 1X GlutaMAX supplement (Thermo Fisher Scientific, cat. 35050061), 0.1 mg/mL primocin (InvivoGen, San Diego, CA, cat. ant-pm-2), 10% defined fetal bovine serum, heat inactivated (HyClone Laboratories Inc., Logan, UT, cat. SH30070.03HI), 50% L-WRN conditioned media (ATCC, cat. CRL-3276), 1.25 mM N-Acetyl-L-cysteine (Sigma-Aldrich, cat. A9165), 10 mM nicotinamide (Sigma-Aldrich, cat. N0636), 1X B-27 supplement (Thermo Fisher Scientific, cat. 17504044), 1X N-2 supplement (Thermo Fisher Scientific, cat. […]
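Also: spheroids exposed to compounds for seven days before readout.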

Structure (SMILES)	viability, T/C (compound 0.0316 µM)	viability, T/C (compound 0.1 µM)	viability, T/C (compound 0.316 µM)	viability, T/C (compound 1 µM)	viability, T/C (compound 3.16 µM)	IC50 (compound alone, run of 01/08/2024) [µM]	viability, T/C (compound 10 µM)	IC50 (curve of compound)	viability, T/C (compound 0.000316 µM)	viability, T/C (compound 0.001 µM)	viability, T/C (compound 0.00316 µM)	viability, T/C (compound 0.01 µM)
COC1C(OC(N)=O)C(O)C(Oc2ccc3c(O)c(NC(=O)c4ccc(O)c(CC=C(C)C)c4)c(=O)oc3c2C)OC1(C)C (stereo not given)	105% [middle of 13 runs]	108% [middle of 13 runs]	111% [middle of 13 runs]	106% [middle of 13 runs]	104% [middle of 13 runs]	> 10	–	–	–	–	–	–
CC1COCCN1c1cc(C2(S(C)(=N)=O)CC2)nc(-c2ccnc3[nH]ccc23)n1 (stereo not given)	97.2% and 103% and 97.7%	101% (2×) and 94.1%	109% and 115% and 116%	97.7% and 154% and 117%	37.8% and 46% and 35.8%	–	9.87% and 13% and 14.6%	2.5 µM and 2.96 µM and 2.52 µM	–	–	–	–
CC[C@@]1(O)C(=O)OCc2c1cc1n(c2=O)Cc2cc3c(CN(C)C)c(O)ccc3nc2-1	54.6% and 99.2% and 57.2%	10.1% and 17.6% and 11.1%	–	–	–	–	–	0.0359 µM and 0.0631 µM and 0.0371 µM	113% and 104% and 102%	102% (2×) and 109%	105% and 98.4% and 122%	90.4% and 90% and 93.3%
